For 13 compounds, IC50 and inhibition results are on record in US20100210649A1, “PYRIDAZINONES AND FURAN-CONTAINING COMPOUNDS” (Sloan-Kettering Institute for Cancer Research, priority 2006, published 2010).

The structures appear in SMILES notation. Where two headings read alike, the source gives them in different places.

Data set [1] has as its system H358. In words: Non Small Cell Lung Cancer proliferation assay (Alamar Blue reduction), H358. It is filed as cell-based. The following applies: Homo sapiens, read-out: Dose Response (uM) H358. As for the experimental part: (§1) These cells have a doubling time of 1-2 days. All cell types are adherent and grow in colonies. The cells should be kept at a density between 50,000 cells/mL -500,000 cells/mL to provide for optimum growth and adequate nutrition. The cell line should be maintained at 37° C. in a humidified atmosphere with 5% CO2 in a sterile cell culture incubator.
(§2) Non Small Cell Lung Cancer Proliferation Assay.
(§3) High Controls for this assay are made by treating Non Small Cell Lung Cancer cells with 5 ul of 10% DMSO. [Final concentration in this assay is 1% DMSO].
(§4) Important Note: All compounds for testing in this assay should be done at the final concentration of 1% DMSO.
(§5) After addition, the cells are placed in cell culture incubator at 37° C. for 48 hours for complete treatment.
(§6) After drug treatment, cytotoxicity is measured by Alamar Blue reduction.
(§7) The cells are incubated for 48 hours at 37° C. to complete the Alamar Blue reduction.
(§8) The final step in the assay is to measure the amount of Alamar Blue reduction. […] The Alamar Blue fluorescence is measured at an excitation of 530 nm and emission of 590 nm.
(§9) For the NSCLC project, the cell based assay was screened against a small molecule library of approximately 200,000 compounds. The compound library is stored in our automated robotic freezer (Biophile) at −20° C. in 100% DMSO. Compound freeze and thaw cycles are kept to a minimum. […] This assay was performed on a fully automated linear track robotic platform (CRS F3 Robot System, Thermo Electron Corp., Ontario, Canada) utilizing several integrated peripherals for plate handling, liquid dispensing, and readout detection. […] The microplates are then placed at 37° C. for 48 hours to complete treatment of cells with compounds. Next, 5 ul of alamar blue was added using a liquid dispenser (Flexprop Precision Dispenser, Perkin Elmer, Mass., USA) and incubated for 48 hours at 37° C. The alamar blue prompt fluorescence was measured on Victor V (Victor^3 V, Perkin Elmer, Mass., USA) and output data files were loaded into ORIS (Oncology Research Informatics System, MSKCC, NY, USA), a screening data acquisition and analysis platform.
(§10) The dose response studies were done with the following standard procedure. First, the cells were counted and dispensed at 250 cells/well into 384-well microplates with compound. The cells were incubated for 48 hours at 37 C to complete treatment, and then alamar blue was added for an additional 48 hours. Finally, alamar blue reduction was measured and the data was loaded into ORIS, our data screening acquisition platform.

In data set [2] the test system is H1650. In words: Non Small Cell Lung Cancer proliferation assay (Alamar Blue reduction), H1650. It is filed as cell-based, human. The following applies: Homo sapiens; for IC50: NCI-H1650, dose response 10 M to 5 nM, read-out: Dose Response (uM) H1650; for inhibition at 10 µM: NCI-H1650, primary screening, 10 μM compound in 1% DMSO (v/v). Summed up:
(§11)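 Compounds are tested at 1% DMSO final concentration against adherent NSCLC cells for 48 h at 37° C, with cytotoxicity measured by Alamar Blue reduction after a further 48 h incubation.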

For data set [3], the system named is H2030. In words: Non Small Cell Lung Cancer proliferation assay (Alamar Blue reduction), H2030. The data set is classed as cell-based, human. The following applies: Homo sapiens; for IC50: NCI-H2030, dose response 10 M to 5 nM, read-out: Dose Response (uM) H2030; for inhibition at 10 µM: NCI-H2030, primary screening, 10 μM compound in 1% DMSO (v/v). Summed up: as §11
A general note: Resazurin is reduced to fluorescent resorufin, in cell work by metabolically active cells.

For data set [4], the system named is H1975. In words: Non Small Cell Lung Cancer proliferation assay (Alamar Blue reduction), H1975. It is filed as cell-based, human. The following applies: Homo sapiens; for IC50: NCI-H1975, dose response 10 M to 5 nM, read-out: Dose Response (uM) H1975; for inhibition at 10 µM: NCI-H1975, primary screening, 10 μM compound in 1% DMSO (v/v). Summed up: as §11
The subject of data set [5] is H3255. In words: Non Small Cell Lung Cancer proliferation assay (Alamar Blue reduction), H3255. It is filed as cell-based, human. The following applies: Homo sapiens; for IC50: NCI-H3255, dose response 10 M to 5 nM, read-out: Dose Response (uM) H3255; for inhibition at 10 µM: NCI-H3255, primary screening, 10 μM compound in 1% DMSO (v/v). Summed up: as §11
Data set [6] can be described thus: in vitro. The following applies: human. How it is done:
NHBE (normal human bronchiolar epithelial cells) are primary cells obtained from donor lungs and commercially available from Cambrex. The HPL1D (human peripheral lung epithelial) cell line has been immortalized with the SV40 large T-antigen. WI-38: human lung fibroblast cell line. HPLID, NHBE and WI-38 cells will serve as controls in the chemical screens. WT: wildtype; WT*: over-expressed wildtype.
Compounds were tested in dose response studies from […] to 5 nM against several non small cell lung cancer lines: H358, H827, H1118, H1650, H1734, H1975, H2030, and H3255, and were also studied in a 72 hour cytotoxicity assay against the NHBE and WI-38 cell lines.

The subject of data set [7] is H1734. In words: Non Small Cell Lung Cancer proliferation assay (Alamar Blue reduction), H1734. It is filed as cell-based, human. The following applies: Homo sapiens, read-out: Dose Response (uM) H1734. How it is done:
as §1, §2, §3, §4, §5, §6, §7, §8, §9, §10

[8] abbreviates: H1650, read-out: PRIMARY HTS [%] H1650 (percentage inhibition).
[9] abbreviates: H2030, read-out: PRIMARY HTS [%] H2030 (percentage inhibition).
Setting [10] is: H1975, read-out: PRIMARY HTS [%] H1975 (percentage inhibition).
[11] abbreviates: H3255, read-out: PRIMARY HTS [%] H3255 (percentage inhibition).
[12] abbreviates: read-out: percentage inhibition H1650.
The mark [13] stands for this setting: read-out: percentage inhibition H2030.
The mark [14] stands for this setting: read-out: percentage inhibition H1975.
The mark [15] stands for this setting: read-out: percentage inhibition H3255.

Turning to `CCN(CC)c1cnn(-c2cccc(C)c2)c(=O)c1Cl` [compound 267074], the IC50 in data set [1] (NCI-H358), in data set [2], in data set [3], in data set [4], in data set [5] and in data set [7] (NCI-H1734) was greater than 10 µM in each case. Moreover, the IC50 at 72 h in data set [6] (CytoTox (uM) NHBE) and in data set [6] (CytoTox (uM) WI-38) was greater than 10 µM throughout.
As for `Cc1cccc(-n2ncc(I)cc2=O)c1` [compound 267086], the IC50 in data set [1] (NCI-H358) was greater than 10 µM; in data set [2] it was greater than 10 µM; in data set [3], greater than 10 µM; in data set [4] it was 6.76 µM; in data set [5], greater than 10 µM; in data set [7] (NCI-H1734), greater than 10 µM. In addition, the IC50 at 72 h in data set [6] (CytoTox (uM) NHBE) and in data set [6] (CytoTox (uM) WI-38) was greater than 10 µM in each case.
As for `Cc1cccc(-n2nc(OCCCNC(=O)CCC(=O)O)c(Cl)c(Cl)c2=O)c1` [compound 273632], the IC50 in data set [1] (NCI-H358), in data set [2], in data set [3], in data set [4], in data set [5] and in data set [7] (NCI-H1734) was greater than 10 µM throughout. For the same compound, the IC50 at 72 h in data set [6] (CytoTox (uM) NHBE) and in data set [6] (CytoTox (uM) WI-38) was greater than 10 µM each time.
`O=C(O)CCC(=O)NCCCOc1cccc(-n2ncc(Br)c(Br)c2=O)c1` [compound 273633]: the IC50 in data set [1] (NCI-H358), in data set [2], in data set [3], in data set [4], in data set [5] and in data set [7] (NCI-H1734) was greater than 10 µM in each case. Also, the IC50 at 72 h in data set [6] (CytoTox (uM) NHBE) and in data set [6] (CytoTox (uM) WI-38) was greater than 10 µM throughout.
Consider `Cc1cccc(-n2ncc(N=[N+]=[N-])c(Cl)c2=O)c1` [compound 267082], for which the IC50 in data set [1] (NCI-H358), in data set [2], in data set [3], in data set [4], in data set [5] and in data set [7] (NCI-H1734) was greater than 10 µM in each case. The IC50 at 72 h in data set [6] (CytoTox (uM) NHBE) and in data set [6] (CytoTox (uM) WI-38) was greater than 10 µM throughout.
Take `CCOc1cnn(-c2cccc(C)c2)c(=O)c1Cl` [compound 267075]: the IC50 is greater than 10 µM in data set [1] (NCI-H358, dose response 10 M to 5 nM, IC50); greater than 10 µM in data set [2]; greater than 10 µM in data set [3]; greater than 10 µM in data set [4]; greater than 10 µM in data set [5]; greater than 10 µM in data set [7] (NCI-H1734, dose response 10 M to 5 nM, IC50). Also, the IC50 at 72 h in data set [6] (CytoTox (uM) NHBE) and in data set [6] (CytoTox (uM) WI-38) was greater than 10 µM each time.
`CCN(CC)c1c(Cl)cnn(-c2cccc(C)c2)c1=O` [compound 267076]: the IC50 in data set [1] (NCI-H358), in data set [2], in data set [3], in data set [4], in data set [5] and in data set [7] (NCI-H1734) was greater than 10 µM each time. Moreover, the IC50 at 72 h in data set [6] (CytoTox (uM) NHBE) and in data set [6] (CytoTox (uM) WI-38) was greater than 10 µM in each case.
Take `O=c1c(Cl)c(Cl)cnn1-c1c(Cl)cc(C(F)(F)F)cc1Cl` [compound 267059]: the IC50 in data set [1] (NCI-H358), in data set [2], in data set [3], in data set [4], in data set [5] and in data set [7] (NCI-H1734) was greater than 10 µM each time. Besides, the IC50 at 72 h in data set [6] (CytoTox (uM) NHBE) and in data set [6] (CytoTox (uM) WI-38) was greater than 10 µM in each case.
Regarding `COc1ccc(=O)n(-c2cccc(C)c2)n1` [compound 257029], the IC50 in data set [1] (NCI-H358), in data set [2], in data set [3], in data set [4], in data set [5] and in data set [7] (NCI-H1734) was greater than 10 µM throughout. In addition, the IC50 at 72 h in data set [6] (CytoTox (uM) NHBE) and in data set [6] (CytoTox (uM) WI-38) was greater than 10 µM each time.
As for `O=C(Nc1ccc(Cl)cc1F)c1ccco1` [compound 66598], the inhibition (in general, the change of the read-out against control, counted positive when it falls) at 10 µM in data set [2] (setting [8]) was found to be 8%; in data set [3] (setting [9]) it was 0%; in data set [4] (setting [10]), 8%; in data set [5] (setting [11]) it was 1%.
`O=c1c(SCc2ccccc2)c(SC2CCCCO2)cnn1-c1ccccc1` (stereo not shown) [compound 182828]: the inhibition at 10 µM in data set [2] (setting [12]) is 25%; in data set [3] (setting [13]), -8%; in data set [4] (setting [14]), -5%; in data set [5] (setting [15]), 18%.
For `O=c1c(Br)c(-n2cc(CO)nn2)cnn1-c1ccccc1` [compound 224256], in that order: 103%, 1%, 102% and 110%.
Turning to `Nc1ccc(NC(=O)c2ccco2)c(Cl)c1` [compound 82456], the inhibition at 10 µM is 6% in data set [2] (setting [8]), -2% in data set [3] (setting [9]), -15% in data set [4] (setting [10]) and 2% in data set [5] (setting [11]).
